Measured values published in US5484778A, “Phthalocyanine photosensitizers for photodynamic therapy and methods for their use” (priority 1993, dated 1996).
Entries after “also recorded” stand apart in the source; their conditions may differ.

What was measured:
[1] = test system: Chinese hamster V79-379 cells; assay: Clonogenic cell survival / photocytotoxicity in V79 cells (Table 1, FIG. 1, FIG. 2); format: cell-based; settings: for CF10 (AlPcCl)/CF10 (Pc) / F10 (AlPcCl)/F10 (Pc): 18 h; for photosensitizing efficiency / photocytotoxicity (in words): V79 cells, red light
Procedure: FIG. 1 is a graph illustrating the photodynamic efficacy of the various compositions of the present invention in comparison to AlPcCl. The phthalocyanine composition compounds of the present invention were tested for their photodynamic efficiency against Chinese hamster fibroblast V79 cells by colony formation. Monolayer cultures were treated with the indicated phthalocyanine composition for 18 hours, irradiated with various fluences of red light, and immediately trypsinized and replated at appropriate aliquots in triplicate. Colonies of at least 50 cells were counted after 7-10 days. The plating efficiency of the untreated cells was approximately 90%.
In this regard, in FIG. 2 the data of FIG. 1 were replotted as a function of the product of the amount of cell-associated phthalocyanine and the light fluence.
Chinese hamster V79-379 lung fibroblasts were grown in monolayer culture in McCoy's 5A medium (Gibco Laboratories, Grand Island, N.Y.) augmented with 10% calf serum and buffered with 20 mM HEPES (pH 7.4).
The cells were treated with 1 μM AlPcCl (from Eastman Kodak, Rochester, N.Y.) or with phthalocyanine compositions I-VI (0.5-1.0 μM final concentration in the medium) for 18 hours by adding the appropriate volume of a 1.0 mM stock solution in dimethylformamide (DMF) to the culture medium. The growth medium was replaced with 4 ml Hank's balanced salt solution (HBSS), and the cells were irradiated. The light source was a 500 W tungsten-halogen lamp located approximately 29 inches below the surface of a glass exposure tray. The visible light administered to the cells was filtered to allow passage of only that portion of the visible spectrum above 600 nm (Lee Primary red filter No. 106, Vincent Lighting, Cleveland, Ohio). The fluence rate was approximately 0.074 kJ/m^2 /s at the level of the cell monolayer.
Cells were irradiated at a density of approximately 2×10^6 per 25 cm^2 flask. Immediately after irradiation, the cell monolayer was treated with trypsin, and appropriate aliquots were plated in triplicate to give 100 to 200 colonies in each 10-cm Petri dish. Cell survival was determined by the ability of the cells to form colonies containing at least 50 cells. The response of cells treated with 1 μM AlPcCl and light was compared in each experiment.
Photocytotoxicity of the phthalocyanines compounds I to VI was also assessed by clonogenic assay (Table 1, FIG. 1). In all experiments, 1 μM AlPcCl was included for comparison purposes. From the survival curves (FIG. 1), the fluence reducing the cell survival to 10% (F10) was obtained. The ratio of the F10 for AlPcCl and the F10 for the test compound is recorded in Table 1.
In order to take differences in cellular uptake into consideration in the assessment of the relative efficiency of these phthalocyanines as photosensitizers of V79 cells, the survival data were replotted against the product of intracellular phthalocyanine concentration and light fluence (FIG. 2). From these curves, the product of intracellular concentration and light fluence reducing survival to 10% (CF10) was obtained, and comparisons of the values for AlPcCl and the test compounds are recorded in Table 1.

[2] = test system: L5178Y cells; assay: Induction of apoptosis (DNA fragmentation) in L5178Y-R cells (Table 6); format: cell-based, mouse; settings: 0.4 μM
Procedure, shortened: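 Exponentially growing mouse lymphoma L5178Y-R cells loaded 18 hours with phthalocyanine at various concentrations, then irradiated with >600 nm red light (up to 30 kJ/m^2, ~74 W/m^2). DNA isolated 2 hours post-PDT, run on 1.5% agarose; value is minimum PDT dose (concentration × fluence) giving visible DNA ladder.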

[3] = test system: chemically-induced benign skin papillomas; assay: PDT of chemically induced skin tumors in SENCAR mice (FIG. 4); format: in vivo; settings: 0.5 and 1.0 mg/kg i.p. in DPPC liposomes
Procedure: 6-week-old female SENCAR mice received a single topical application of 5 μg DMBA in 0.2 ml acetone on the dorsal skin as tumor initiator. One week later, the animals were started on twice-weekly topical applications of 1 μg TPA in 0.2 ml acetone as tumor promoter. All of the animals developed tumors at 12 weeks. Mice that developed 4-5 tumors per animal averaging 5-8 mm in diameter and 2-5 mm in thickness were used. Pc IV, entrapped in DPPC liposomes was administered intraperitoneally at doses of either 0.5 or 1.0 mg/kg and 24 hrs later the tumor area was illuminated with light from an argon pumped dye laser tuned at 675 nm for a total light dose of 135 J/cm^2 (75 mW/cm^2). All possible controls were included; either the animals were untreated, treated only with laser light or treated only with Pc IV alone.

[4] = Solubility

CN(C)CCC[Si](C)(C)O[Si]1(O)n2c3c4ccccc4c2N=C2N=C(N=c4c5ccccc5c(n41)=NC1=NC(=N3)c3ccccc31)c1ccccc12 (centres unmarked) [Compound IV, HOSiPcOsi(CH3)2)(CH2)3 N(CH3)2]
CF10 (AlPcCl)/CF10 (Pc) ([1]; 0.5 μM): 3.9
F10 (AlPcCl)/F10 (Pc) ([1]; 0.5 μM): 1.85
CF10 (AlPcCl)/CF10 (Pc) ([1]; 1.0 μM, CF10 = intracellular concentration x fluence reducing survival to 10%): 3.5
F10 (AlPcCl)/F10 (Pc) ([1]; 1.0 μM, F10 = fluence reducing survival to 10%): 4.25
photosensitizing efficiency / photocytotoxicity (in words) [1]: almost twice as efficient as the standard AlPcCl; also recorded: most efficient photosensitizer
photosensitizing efficiency / photocytotoxicity (in words) ([1]; listed as SiPc(OH)(OSi(CH3)2 (CH2)3 N(CH3)2)): most efficient photosensitizer, as judged by uptake, growth delay, and photocytotoxicity
Minimum Demonstrated Condition to induce apoptosis: C × F [2]: 1.2 μm × kJ/m^2
Minimum Demonstrated Condition to induce apoptosis: Fluence [2]: 3.0 kJ/m^2
tumor volume (eventual) ([3]; 675 nm, 135 J/cm^2): 0
tumor recurrence ([3]; 34 days): did not return for the length of the study, 34 days
solubility in solvents [4]: soluble in CH2 Cl2 and toluene
